26 molecules from ChEMBL document CHEMBL5291721, “A preclinical secondary pharmacology resource illuminates target-adverse drug reaction associations of marketed drugs” (Nat Commun, 2023) can be followed below.

Experiment [1] addresses T1, Prostaglandin G/H synthase 1 (Homo sapiens, UniProt P23219). The experiment is classed as functional.
Experiment [2] has as its target T2, D(1A) dopamine receptor (Homo sapiens, UniProt P21728).
Experiment [3] addresses T1, Prostaglandin G/H synthase 1. The experiment is classed as functional. The source holds these as a separate data set.
In experiment [4] the target is Gamma-aminobutyric acid receptor subunit alpha-1 (Rattus norvegicus, UniProt P62813). The experiment is classed as functional.
Experiment [5] addresses T2, D(1A) dopamine receptor. The experiment is classed as functional, cell-based.
In experiment [6] the target is Beta-2 adrenergic receptor (Homo sapiens, UniProt P07550).
Experiment [7] concerns the target 3',5'-cyclic-AMP phosphodiesterase 4D (Homo sapiens, UniProt Q08499). The experiment is classed as functional.
In experiment [8] the target is Delta-type opioid receptor (Homo sapiens, UniProt P41143).
Experiment [9] deals with Voltage-dependent L-type calcium channel subunit alpha-1C (Rattus norvegicus, UniProt P22002). The experiment is classed as functional.
In experiment [10] the target is T3, Alpha-2A adrenergic receptor (Homo sapiens, UniProt P08913).
T3 sequence (P08913 whole entry): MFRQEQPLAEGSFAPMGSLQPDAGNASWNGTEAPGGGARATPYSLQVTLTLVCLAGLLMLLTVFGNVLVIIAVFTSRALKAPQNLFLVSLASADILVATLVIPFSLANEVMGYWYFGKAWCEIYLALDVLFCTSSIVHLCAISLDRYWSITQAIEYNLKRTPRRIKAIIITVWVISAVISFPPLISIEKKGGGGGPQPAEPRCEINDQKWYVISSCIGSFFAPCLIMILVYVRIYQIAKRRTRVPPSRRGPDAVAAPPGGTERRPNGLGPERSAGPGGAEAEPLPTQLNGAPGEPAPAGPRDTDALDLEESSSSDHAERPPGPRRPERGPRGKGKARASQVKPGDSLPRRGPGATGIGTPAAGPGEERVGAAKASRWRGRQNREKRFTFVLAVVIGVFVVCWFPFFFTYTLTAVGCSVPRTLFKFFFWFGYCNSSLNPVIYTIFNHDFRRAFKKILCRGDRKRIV
It is filed as functional, cell-based.

Experiment [11] concerns the target T4, Muscarinic acetylcholine receptor M2 (Homo sapiens, UniProt P08172).
T4 sequence (P08172 whole entry): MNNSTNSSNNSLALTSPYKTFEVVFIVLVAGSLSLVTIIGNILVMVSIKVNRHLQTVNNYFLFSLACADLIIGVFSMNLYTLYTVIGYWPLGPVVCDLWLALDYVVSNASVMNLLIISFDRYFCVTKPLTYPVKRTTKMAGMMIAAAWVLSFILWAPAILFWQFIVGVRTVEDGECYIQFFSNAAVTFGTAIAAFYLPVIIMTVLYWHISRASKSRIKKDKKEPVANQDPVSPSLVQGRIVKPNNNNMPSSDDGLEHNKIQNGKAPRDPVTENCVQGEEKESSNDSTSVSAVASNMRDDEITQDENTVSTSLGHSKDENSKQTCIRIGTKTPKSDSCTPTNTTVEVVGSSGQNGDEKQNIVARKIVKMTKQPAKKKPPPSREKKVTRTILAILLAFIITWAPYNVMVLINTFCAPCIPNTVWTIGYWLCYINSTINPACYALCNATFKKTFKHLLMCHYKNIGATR
It is filed as functional, cell-based.

In experiment [12] the target is T5, 5-hydroxytryptamine receptor 1A (Homo sapiens, UniProt P08908).
T5 sequence (P08908 whole entry): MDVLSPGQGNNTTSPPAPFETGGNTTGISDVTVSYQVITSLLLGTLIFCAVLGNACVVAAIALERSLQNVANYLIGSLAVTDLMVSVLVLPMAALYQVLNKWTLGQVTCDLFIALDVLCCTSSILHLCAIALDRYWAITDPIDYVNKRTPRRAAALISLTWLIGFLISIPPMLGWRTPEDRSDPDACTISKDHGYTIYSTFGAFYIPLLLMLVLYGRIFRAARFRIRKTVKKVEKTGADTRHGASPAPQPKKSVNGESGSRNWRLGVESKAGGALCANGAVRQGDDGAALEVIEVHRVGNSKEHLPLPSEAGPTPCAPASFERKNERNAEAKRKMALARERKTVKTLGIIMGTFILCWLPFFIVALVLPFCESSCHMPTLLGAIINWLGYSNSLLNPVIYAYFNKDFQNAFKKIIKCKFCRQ
It is filed as functional, cell-based.

Another experiment addresses T6, Progesterone receptor (Homo sapiens, UniProt P06401).
T6 sequence (P06401 whole entry): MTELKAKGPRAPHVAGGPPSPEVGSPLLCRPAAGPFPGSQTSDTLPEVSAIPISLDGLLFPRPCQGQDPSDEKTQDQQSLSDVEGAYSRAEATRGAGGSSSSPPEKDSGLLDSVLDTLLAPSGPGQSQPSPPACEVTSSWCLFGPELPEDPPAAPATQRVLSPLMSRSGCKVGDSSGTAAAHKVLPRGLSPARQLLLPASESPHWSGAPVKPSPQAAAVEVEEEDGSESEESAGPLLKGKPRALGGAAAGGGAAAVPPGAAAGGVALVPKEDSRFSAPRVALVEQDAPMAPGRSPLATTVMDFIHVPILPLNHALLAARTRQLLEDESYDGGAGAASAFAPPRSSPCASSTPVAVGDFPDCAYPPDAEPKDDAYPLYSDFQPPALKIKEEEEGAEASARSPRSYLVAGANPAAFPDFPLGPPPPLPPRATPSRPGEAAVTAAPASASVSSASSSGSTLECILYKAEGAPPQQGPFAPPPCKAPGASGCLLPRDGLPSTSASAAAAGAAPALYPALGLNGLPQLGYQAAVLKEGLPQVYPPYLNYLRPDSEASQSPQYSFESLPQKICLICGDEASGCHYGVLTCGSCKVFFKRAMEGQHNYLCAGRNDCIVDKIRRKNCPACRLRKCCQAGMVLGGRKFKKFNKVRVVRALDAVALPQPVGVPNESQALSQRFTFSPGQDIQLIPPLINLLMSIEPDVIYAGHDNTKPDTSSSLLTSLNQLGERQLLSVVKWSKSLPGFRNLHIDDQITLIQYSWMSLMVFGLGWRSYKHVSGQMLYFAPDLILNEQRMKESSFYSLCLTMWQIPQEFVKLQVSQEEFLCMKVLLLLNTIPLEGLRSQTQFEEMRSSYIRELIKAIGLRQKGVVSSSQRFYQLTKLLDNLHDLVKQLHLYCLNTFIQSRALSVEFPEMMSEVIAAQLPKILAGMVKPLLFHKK
The experiment is classed as functional.
Note: assay procedure not described here.

T1 sequence (P23219 whole entry): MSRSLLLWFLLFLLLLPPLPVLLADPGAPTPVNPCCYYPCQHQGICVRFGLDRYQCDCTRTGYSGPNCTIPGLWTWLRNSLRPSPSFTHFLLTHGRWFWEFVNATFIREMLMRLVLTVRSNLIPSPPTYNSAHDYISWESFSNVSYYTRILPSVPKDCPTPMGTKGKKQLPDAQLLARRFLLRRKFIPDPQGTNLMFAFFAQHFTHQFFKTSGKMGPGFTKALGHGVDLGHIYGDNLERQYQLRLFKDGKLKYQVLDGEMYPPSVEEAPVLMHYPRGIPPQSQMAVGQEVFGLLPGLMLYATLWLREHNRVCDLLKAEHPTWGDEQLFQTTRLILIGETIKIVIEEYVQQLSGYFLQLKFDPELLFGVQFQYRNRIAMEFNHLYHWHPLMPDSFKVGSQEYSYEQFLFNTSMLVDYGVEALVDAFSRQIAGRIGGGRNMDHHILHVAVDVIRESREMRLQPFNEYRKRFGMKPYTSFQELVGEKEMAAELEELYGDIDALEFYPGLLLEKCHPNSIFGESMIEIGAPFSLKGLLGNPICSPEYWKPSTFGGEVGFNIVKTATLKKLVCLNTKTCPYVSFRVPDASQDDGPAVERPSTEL
T2 sequence (P21728 whole entry): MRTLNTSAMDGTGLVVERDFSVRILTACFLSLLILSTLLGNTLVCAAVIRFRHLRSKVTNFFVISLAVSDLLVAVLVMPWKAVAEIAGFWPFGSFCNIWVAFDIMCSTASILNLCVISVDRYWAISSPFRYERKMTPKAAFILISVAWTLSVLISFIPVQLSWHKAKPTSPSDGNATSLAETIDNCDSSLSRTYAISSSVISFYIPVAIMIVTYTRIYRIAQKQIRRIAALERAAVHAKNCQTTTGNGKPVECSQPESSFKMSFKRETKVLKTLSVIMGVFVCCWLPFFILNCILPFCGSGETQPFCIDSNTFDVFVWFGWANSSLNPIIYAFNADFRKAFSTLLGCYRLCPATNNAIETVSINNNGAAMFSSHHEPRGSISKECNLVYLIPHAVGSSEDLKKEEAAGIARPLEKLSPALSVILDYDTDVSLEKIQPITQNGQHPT
Chain of Voltage-dependent L-type calcium channel subunit alpha-1C (P22002 whole entry): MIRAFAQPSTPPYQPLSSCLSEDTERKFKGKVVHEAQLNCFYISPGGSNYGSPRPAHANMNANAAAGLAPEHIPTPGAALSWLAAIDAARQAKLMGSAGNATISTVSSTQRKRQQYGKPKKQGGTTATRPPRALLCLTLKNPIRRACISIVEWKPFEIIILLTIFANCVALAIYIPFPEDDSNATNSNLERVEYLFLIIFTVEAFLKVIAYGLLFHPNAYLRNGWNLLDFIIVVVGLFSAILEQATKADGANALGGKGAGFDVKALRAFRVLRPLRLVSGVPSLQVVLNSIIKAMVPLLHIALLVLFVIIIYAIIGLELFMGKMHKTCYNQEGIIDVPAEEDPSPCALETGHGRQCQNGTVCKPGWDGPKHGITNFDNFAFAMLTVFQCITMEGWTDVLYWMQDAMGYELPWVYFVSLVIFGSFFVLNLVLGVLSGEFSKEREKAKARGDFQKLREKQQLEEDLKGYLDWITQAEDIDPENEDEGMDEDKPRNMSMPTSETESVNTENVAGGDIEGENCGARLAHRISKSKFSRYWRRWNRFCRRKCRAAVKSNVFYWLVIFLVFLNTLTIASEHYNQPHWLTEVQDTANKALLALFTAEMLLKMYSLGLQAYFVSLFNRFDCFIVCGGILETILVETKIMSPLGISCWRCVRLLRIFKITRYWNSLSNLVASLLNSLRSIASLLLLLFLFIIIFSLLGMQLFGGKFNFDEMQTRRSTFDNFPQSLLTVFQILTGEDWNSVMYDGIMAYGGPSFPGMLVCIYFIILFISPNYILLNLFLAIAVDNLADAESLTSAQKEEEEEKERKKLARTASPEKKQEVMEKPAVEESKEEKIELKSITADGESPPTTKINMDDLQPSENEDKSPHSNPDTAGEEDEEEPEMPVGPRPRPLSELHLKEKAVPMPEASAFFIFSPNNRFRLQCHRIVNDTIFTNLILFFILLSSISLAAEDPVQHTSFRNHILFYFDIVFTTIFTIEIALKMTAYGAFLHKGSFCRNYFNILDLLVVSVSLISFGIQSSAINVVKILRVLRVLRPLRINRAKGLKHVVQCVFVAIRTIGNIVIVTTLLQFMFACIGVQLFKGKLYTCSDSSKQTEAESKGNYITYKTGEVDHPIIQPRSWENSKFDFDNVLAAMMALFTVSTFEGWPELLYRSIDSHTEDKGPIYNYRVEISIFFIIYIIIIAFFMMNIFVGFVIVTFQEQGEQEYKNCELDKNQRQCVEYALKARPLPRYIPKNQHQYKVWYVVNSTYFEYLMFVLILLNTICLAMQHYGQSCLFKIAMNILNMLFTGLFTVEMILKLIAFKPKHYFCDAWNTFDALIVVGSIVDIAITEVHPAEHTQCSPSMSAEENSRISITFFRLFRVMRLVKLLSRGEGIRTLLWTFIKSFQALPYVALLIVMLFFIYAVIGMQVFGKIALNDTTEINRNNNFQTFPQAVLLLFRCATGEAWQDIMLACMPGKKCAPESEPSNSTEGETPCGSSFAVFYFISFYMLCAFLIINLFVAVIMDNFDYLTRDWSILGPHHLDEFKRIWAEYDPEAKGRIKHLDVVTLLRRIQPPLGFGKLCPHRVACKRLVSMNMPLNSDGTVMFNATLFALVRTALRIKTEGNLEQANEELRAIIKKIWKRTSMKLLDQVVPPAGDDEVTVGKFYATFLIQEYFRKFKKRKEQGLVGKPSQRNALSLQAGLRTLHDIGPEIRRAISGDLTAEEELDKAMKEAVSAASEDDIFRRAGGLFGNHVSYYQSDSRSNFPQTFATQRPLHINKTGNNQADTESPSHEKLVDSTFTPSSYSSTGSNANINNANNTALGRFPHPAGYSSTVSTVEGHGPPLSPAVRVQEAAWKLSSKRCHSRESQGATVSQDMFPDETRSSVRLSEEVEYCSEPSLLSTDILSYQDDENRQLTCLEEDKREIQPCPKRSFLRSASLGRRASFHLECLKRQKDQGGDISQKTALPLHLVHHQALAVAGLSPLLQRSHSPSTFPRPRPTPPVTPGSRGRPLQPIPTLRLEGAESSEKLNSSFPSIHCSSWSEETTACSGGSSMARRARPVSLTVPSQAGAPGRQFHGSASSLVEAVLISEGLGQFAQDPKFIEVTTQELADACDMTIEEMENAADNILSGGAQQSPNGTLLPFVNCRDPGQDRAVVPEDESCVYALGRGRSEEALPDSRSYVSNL
Chain of Gamma-aminobutyric acid receptor subunit alpha-1 (P62813 whole entry): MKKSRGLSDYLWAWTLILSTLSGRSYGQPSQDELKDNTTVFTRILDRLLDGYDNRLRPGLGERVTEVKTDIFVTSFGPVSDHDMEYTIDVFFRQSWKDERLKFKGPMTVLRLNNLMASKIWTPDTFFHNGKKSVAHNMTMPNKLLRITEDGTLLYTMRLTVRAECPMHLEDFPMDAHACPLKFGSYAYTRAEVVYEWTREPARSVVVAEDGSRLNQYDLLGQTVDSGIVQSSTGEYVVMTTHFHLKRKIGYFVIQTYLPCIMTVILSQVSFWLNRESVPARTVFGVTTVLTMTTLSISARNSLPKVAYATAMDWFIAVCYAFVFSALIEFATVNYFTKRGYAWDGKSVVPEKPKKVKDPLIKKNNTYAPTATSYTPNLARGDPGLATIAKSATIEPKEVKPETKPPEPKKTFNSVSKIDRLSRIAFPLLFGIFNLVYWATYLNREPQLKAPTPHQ
Chain of Beta-2 adrenergic receptor (P07550 whole entry): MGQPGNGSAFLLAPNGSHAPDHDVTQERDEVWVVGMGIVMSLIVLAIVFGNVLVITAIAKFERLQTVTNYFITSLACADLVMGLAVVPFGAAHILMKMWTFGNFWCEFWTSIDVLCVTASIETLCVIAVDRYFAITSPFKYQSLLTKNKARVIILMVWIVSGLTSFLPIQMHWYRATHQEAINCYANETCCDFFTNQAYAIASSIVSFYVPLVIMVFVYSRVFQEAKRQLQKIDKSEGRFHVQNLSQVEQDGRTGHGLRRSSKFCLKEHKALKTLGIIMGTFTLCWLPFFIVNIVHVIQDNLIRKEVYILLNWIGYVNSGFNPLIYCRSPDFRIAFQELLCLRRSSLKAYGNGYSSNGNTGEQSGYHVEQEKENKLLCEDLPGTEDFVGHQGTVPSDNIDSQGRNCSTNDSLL
Chain of 3',5'-cyclic-AMP phosphodiesterase 4D (Q08499 whole entry): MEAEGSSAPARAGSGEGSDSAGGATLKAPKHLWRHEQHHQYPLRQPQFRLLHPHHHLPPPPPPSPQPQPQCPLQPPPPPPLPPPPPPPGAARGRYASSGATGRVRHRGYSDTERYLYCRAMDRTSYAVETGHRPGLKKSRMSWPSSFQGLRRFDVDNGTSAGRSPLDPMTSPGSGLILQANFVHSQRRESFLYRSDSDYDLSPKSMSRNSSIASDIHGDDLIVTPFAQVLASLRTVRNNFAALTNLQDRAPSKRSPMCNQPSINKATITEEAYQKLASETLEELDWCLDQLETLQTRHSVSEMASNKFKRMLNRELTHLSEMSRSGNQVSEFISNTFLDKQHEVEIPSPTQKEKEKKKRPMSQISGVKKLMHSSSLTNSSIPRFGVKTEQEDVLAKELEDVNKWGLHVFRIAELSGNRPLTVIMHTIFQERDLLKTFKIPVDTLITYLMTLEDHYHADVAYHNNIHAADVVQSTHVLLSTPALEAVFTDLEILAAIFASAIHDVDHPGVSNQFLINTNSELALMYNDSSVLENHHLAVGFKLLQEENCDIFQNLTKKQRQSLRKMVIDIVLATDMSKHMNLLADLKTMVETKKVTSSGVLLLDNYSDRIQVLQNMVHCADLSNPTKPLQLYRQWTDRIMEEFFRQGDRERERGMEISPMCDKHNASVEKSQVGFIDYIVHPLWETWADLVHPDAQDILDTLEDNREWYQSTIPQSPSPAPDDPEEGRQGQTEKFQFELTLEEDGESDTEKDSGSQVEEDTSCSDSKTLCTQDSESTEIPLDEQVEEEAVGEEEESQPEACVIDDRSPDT

`Cc1cc2c(cc1S(N)(=O)=O)S(=O)(=O)CCC2`: the AC50 (in experiment [1]; at D(1A) dopamine receptor [2]; in experiment [3]) was > 30 µM throughout.

In the case of `C[C@H](N[C@@H](CCc1ccccc1)C(=O)O)C(=O)N1Cc2ccccc2C[C@H]1C(=O)O`, the AC50 (in experiment [1]; at D(1A) dopamine receptor [2]; in [3]) was > 30 µM each time.

For the molecule `O=C(O)[C@@H]1C[C@@H](O)CN1`, the concentration at half-maximal activity (AC50) (in experiment [1]; at D(1A) dopamine receptor [2]; in [3]) was > 30 µM each time.

On to `CC1(C)S[C@@H]2[C@H](/N=C/N3CCCCCC3)C(=O)N2[C@H]1C(=O)O` [AMDINOCILLIN], for which the results for the AC50 (in experiment [1]; on D(1A) dopamine receptor [2]; in experiment [3]) were > 30 µM, > 30 µM and 14.5 µM, respectively.

For the molecule `CC(=O)[C@]1(N)Cc2c(O)c3c(c(O)c2[C@@H](O[C@H]2C[C@H](O)[C@H](O)CO2)C1)C(=O)c1ccccc1C3=O` [AMRUBICIN], the AC50 (commonly the midpoint of the concentration-response curve, whichever way the signal moves) in experiment [1] is 2.81 µM; at D(1A) dopamine receptor [2], > 30 µM; in [3], 3.62 µM.

On to `NC(=O)[C@@H]1CC[C@@H]2CN1C(=O)N2OS(=O)(=O)O` [AVIBACTAM], for which the concentration at half-maximal activity (AC50) (in experiment [1]; on D(1A) dopamine receptor [2]; in experiment [3]) was > 30 µM throughout.

On to `CC(=O)OC[C@H]1O[C@@H](n2ncc(=O)[nH]c2=O)[C@H](OC(C)=O)[C@@H]1OC(C)=O` [AZARIBINE], for which the AC50 in [1] and in [3] was > 30 µM each time.

As for `CC(C)(C)NC(=O)N[C@H](C(=O)N1C[C@H]2[C@@H]([C@H]1C(=O)NC(CC1CCC1)C(=O)C(N)=O)C2(C)C)C(C)(C)C` (some centres undefined) [BOCEPREVIR], the AC50 (in [1]; at D(1A) dopamine receptor [2]; in experiment [3]) was > 30 µM in each case.

Consider `C=C1CC[C@H](O)C/C1=C/C=C1\CCC[C@]2(C)[C@@H]([C@H](C)CCCC(C)C)CC[C@@H]12` [CHOLECALCIFEROL], for which the AC50 in experiment [1] was 12.3 µM; on D(1A) dopamine receptor [2], > 30 µM; in experiment [3], 22.9 µM.

As for `Cc1ncc2c(c1O)COC2c1ccc(Cl)cc1` (centres undefined) [CICLETANINE], the AC50 (in experiment [1]; at D(1A) dopamine receptor [2]; in experiment [3]) was > 30 µM each time.

For the molecule `Cc1cn([C@H]2O[C@@H](CO)[C@H](O)[C@H]2F)c(=O)[nH]c1=O` [CLEVUDINE], the AC50 (in experiment [1]; on D(1A) dopamine receptor [2]; in experiment [3]) was > 30 µM throughout.

For the molecule `CC(=O)[C@H]1CC[C@H]2[C@@H]3C=CC4=CC(=O)CC[C@@]4(C)[C@@H]3CC[C@]12C` [DYDROGESTERONE], the AC50 (in experiment [1]; at D(1A) dopamine receptor [2]; in experiment [3]) was > 30 µM throughout.

Take `CC(=O)O[C@H]1Cc2ccccc2N(C(N)=O)c2ccccc21` [ESLICARBAZEPINE ACETATE]: the AC50 (in experiment [1]; at D(1A) dopamine receptor [2]; in experiment [3]) was > 30 µM each time.

In the case of `CC(O)(P(=O)(O)O)P(=O)(O)O` [ETIDRONIC ACID], the AC50 (in experiment [1]; on D(1A) dopamine receptor [2]; in experiment [3]) was > 30 µM in each case.

`Cc1ccc(S(=O)(=O)NC(=O)NC2CCCCC2)cc1` [GLYCYCLAMIDE]: the AC50 (in experiment [1]; at D(1A) dopamine receptor [2]; in [3]) was > 30 µM throughout.

For `CN1CCCN(C(c2ccccc2)c2ccc(Cl)cc2)CC1` (centres undefined) [HOMOCHLORCYCLIZINE], the AC50 in experiment [1] is > 30 µM; at D(1A) dopamine receptor [2] it was 2.4 µM; in [3] it was > 30 µM.

Turning to `CC(=O)OCC(=O)[C@@]1(O)CC[C@H]2[C@@H]3CCC4=CC(=O)CC[C@]4(C)[C@H]3[C@@H](O)C[C@@]21C` [HYDROCORTISONE ACETATE], the AC50 (in experiment [1]; on D(1A) dopamine receptor [2]; in [3]) was > 30 µM in each case.

Take `CNCCc1ccc(OC(=O)C(C)C)c(OC(=O)C(C)C)c1` [IBOPAMINE]: the AC50 in experiment [4] is > 30 µM; at D(1A) dopamine receptor [5], 0.0442 µM; in experiment [6] it was > 30 µM; in experiment [7] it was > 30 µM; in [8] it was > 30 µM; in experiment [9], 18 µM. The AC50 in experiment [10] is 3.48 µM; in experiment [11] it was > 30 µM; in [12], > 30 µM; at Progesterone receptor, > 30 µM.

For the molecule `CC(COc1ccccc1)NC(C)C(O)c1ccc(O)cc1` (centres undefined) [ISOXSUPRINE], the figures for the AC50 (in experiment [1]; on D(1A) dopamine receptor [2]; in experiment [3]) were > 30 µM, 9.44 µM and > 30 µM, respectively.

As to `O=C(CCC/C=C\C[C@@H]1[C@@H](CC[C@@H](O)CCc2ccccc2)[C@H](O)C[C@@H]1O)OCCCCO[N+](=O)[O-]` [LATANOPROSTENE BUNOD], the AC50 in experiment [1] is 13.5 µM; on D(1A) dopamine receptor [2], > 30 µM; in experiment [3], > 30 µM.

With `Cc1oc(=O)oc1COC(=O)[C@@H]1N2C(=O)[C@@H](NC(=O)[C@H](N)c3ccccc3)[C@H]2SC1(C)C` [LENAMPICILLIN], the AC50 (in experiment [1]; on D(1A) dopamine receptor [2]; in experiment [3]) was > 30 µM in each case.

Take `COc1ccc(OC)c(C(O)C(C)N)c1` (centres undefined) [METHOXAMINE]: the concentration at half-maximal activity (AC50) (in experiment [1]; at D(1A) dopamine receptor [2]; in [3]) was > 30 µM in each case.

On to `CC1(CCN2CCCCC2)C(=O)CCc2ccccc21` (centres undefined) [NEPINALONE], for which the AC50 (in experiment [1]; at D(1A) dopamine receptor [2]; in experiment [3]) was > 30 µM in each case.

In the case of `COC(=O)C[C@](O)(CCCC(C)(C)O)C(=O)O[C@@H]1C(OC)=C[C@]23CCCN2CCc2cc4c(cc2[C@H]13)OCO4` [OMACETAXINE MEPESUCCINATE], the AC50 in [1] was > 30 µM; at D(1A) dopamine receptor [2], > 30 µM; in experiment [3], > 10 µM.

`COc1cccc(C(=O)CCN[C@@H](C)[C@H](O)c2ccccc2)c1` [OXYFEDRINE]: the AC50 in [1] is > 30 µM; at D(1A) dopamine receptor [2], 16.4 µM; in [3] it was > 30 µM.

As for `CC[N+](C)(CC)CCOC(=O)C(O)(c1ccccc1)C1CCCCC1` (centres undefined) [OXYPHENONIUM], the AC50 (in experiment [1]; on D(1A) dopamine receptor [2]; in experiment [3]) was > 30 µM in each case.
